Positions of bridges follow the written chain, without caps; N, C: chain ends. Non-standard residues stand in square brackets, D forms with d. Residues, ends and D or L forms follow the SMILES beside them. *: point of attachment. Orn(2-imidazolinyl) = N[C@@H](CCCNC1=NCCN1)C(=O)O; Phe(3,4-Cl2) = N[C@@H](Cc1ccc(Cl)c(Cl)c1)C(=O)O; Phe(Nα-CONH2) = NC(=O)N[C@@H](Cc1ccccc1)C(=O)*; Phe(2,4-Cl2) = N[C@@H](Cc1ccc(Cl)cc1Cl)C(=O)O; Decanoyl(3,6,9-trioxa) = COCCOCCOCC(=O)*; Phe(3-Cl) = N[C@@H](Cc1cccc(Cl)c1)C(=O)O; Phe(2-Cl) = N[C@@H](Cc1ccccc1Cl)C(=O)O; Phe(4-F) = N[C@@H](Cc1ccc(F)cc1)C(=O)O; 1Nal = N[C@@H](Cc1cccc2ccccc12)C(=O)O; 2Nal = N[C@@H](Cc1ccc2ccccc2c1)C(=O)O; Bta = N[C@@H](Cc1csc2ccccc12)C(=O)O; cisHyp = O=C(O)[C@@H]1C[C@H](O)CN1; Hyp = O=C(O)[C@@H]1C[C@@H](O)CN1; d(hLeu) = CC(C)CC[C@@H](N)C(=O)O; 2Thi = N[C@@H](Cc1cccs1)C(=O)O; Cha = N[C@@H](CC1CCCCC1)C(=O)O; dCha = N[C@H](CC1CCCCC1)C(=O)O; Methoxyoxalyl = COC(=O)C(=O)*; hLeu = CC(C)CC[C@H](N)C(=O)O; X14 = NC(=O)N(Cc1ccccc1)N*; NMeS = CN[C@@H](CO)C(=O)O; Pip = O=C(O)[C@@H]1CCCCN1; Nle = CCCC[C@H](N)C(=O)O; Orn = NCCC[C@H](N)C(=O)O; Aze = O=C(O)[C@@H]1CCN1; Fluoroacetyl = O=C(CF)*; tBu = CC(C)(C)*
These compounds were tested against T1, human C5aR(CD88) (Homo sapiens, UniProt P21730) (assay: Determination of the IC50 value in an enzyme release assay (functional assay, antagonistic activity)). Conditions: activity (group), antagonistic activity; IC50 group in enzyme release assay, RBL cells expressing human C5aR(CD88).
T1 construct: expressed in transfected cells; host or cells: rat basophilic leukemia cells (RBL)
T1 sequence (P21730 1-350): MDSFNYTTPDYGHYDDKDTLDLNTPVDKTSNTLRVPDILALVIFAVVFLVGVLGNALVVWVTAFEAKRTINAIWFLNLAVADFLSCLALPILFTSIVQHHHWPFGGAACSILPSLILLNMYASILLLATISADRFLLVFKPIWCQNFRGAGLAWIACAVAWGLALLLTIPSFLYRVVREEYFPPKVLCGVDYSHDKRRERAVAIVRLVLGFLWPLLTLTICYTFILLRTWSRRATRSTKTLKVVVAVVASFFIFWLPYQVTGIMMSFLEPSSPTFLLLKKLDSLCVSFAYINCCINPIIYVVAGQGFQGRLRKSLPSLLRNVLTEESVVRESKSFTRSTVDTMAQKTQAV
Assay type: cell-based

Structure (SMILES)	IC50
NCCC[C@H](NC(=O)[C@H](Cc1ccccc1)NC(=O)CF)C(=O)N1CCC[C@H]1C(=O)N[C@H](CC1CCCCC1)C(=O)N[C@@H](Cc1csc2ccccc12)C(=O)N[C@@H](Cc1ccccc1)C(N)=O [Compound 142, FH2C—CO-Phe-Orn-Pro-cha-Bta-Phe-NH2] (Fluoroacetyl-F[Orn]P[dCha][Bta]F-NH2)	20 to 50 nM
CC(=O)N[C@@H](Cc1ccccc1)C(=O)N[C@@H](CCCN)C(=O)N1CCC[C@H]1C(=O)N[C@@H](CC1CCCCC1)C(=O)N[C@@H](Cc1csc2ccccc12)C(=O)NN(Cc1ccccc1)C(N)=O [Compound 257, Ac-Phe-Orn-Pro-Cha-Bta-NH-NBn-CO—NH2] (Ac-F[Orn]P[Cha][Bta]-X14)	50 to 200 nM

Same assay, conditions: antagonistic activity; IC50 group in enzyme release assay, RBL cells expressing human C5aR(CD88); read-out: activity (group)

Structure (SMILES)	IC50
NC(=O)N[C@@H](Cc1ccccc1)C(=O)N[C@H]1CCCNC(=O)[C@H](Cc2ccccc2)NC(=O)[C@H](Cc2c[nH]c3ccccc23)NC(=O)[C@@H](CC2CCCCC2)NC(=O)[C@@H]2C[C@@H](O)CN2C1=O [Compound 323, Fai-Phe-[Orn-Hyp-cha-Trp-Phe]] ({Phe(Nα-CONH2)}-[Orn][Hyp][dCha]WF; lactam 1-C)	50 to 200 nM
CC(=O)N[C@@H](Cc1ccccc1)C(=O)N[C@@H](CCCNC1=NCCN1)C(=O)N1CCC[C@H]1C(=O)N[C@H](CCC(C)C)C(=O)N[C@@H](Cc1csc2ccccc12)C(=O)N[C@@H](Cc1ccccc1)C(N)=O [Compound 226, Ac-Phe-Ffa-Pro-hle-Bta-Phe-NH2] (Ac-F[Orn(2-imidazolinyl)]P[d(hLeu)][Bta]F-NH2)	10 to 20 nM
CC(=O)N[C@@H](Cc1ccccc1)C(=O)N[C@@H](CCCN)C(=O)N1C[C@@H](O)C[C@H]1C(=O)N[C@H](CCC(C)C)C(=O)N[C@@H](Cc1ccc(F)cc1)C(=O)N[C@@H](Cc1ccccc1)C(N)=O [Compound 236, Ac-Phe-Orn-Chy-hle-Pff-Phe-NH2] (Ac-F[Orn][cisHyp][d(hLeu)][Phe(4-F)]F-NH2)	50 to 200 nM
CC(=O)N[C@@H](Cc1ccccc1)C(=O)N[C@@H](CCCN)C(=O)N1CCC[C@H]1C(=O)N[C@H](CCC(C)C)C(=O)N[C@@H](Cc1ccc(F)cc1)C(=O)N[C@@H](Cc1ccc(F)cc1)C(N)=O [Compound 301, Ac-Phe-Orn-Pro-hle-Pff-Pff-NH2] (Ac-F[Orn]P[d(hLeu)][Phe(4-F)][Phe(4-F)]-NH2)	50 to 200 nM
CC(=O)N[C@@H](Cc1ccccc1)C(=O)N[C@@H](CCCN)C(=O)N1CCC[C@H]1C(=O)N[C@H](CCC(C)C)C(=O)N[C@@H](Cc1csc2ccccc12)C(=O)N[C@@H](Cc1cccc2ccccc12)C(N)=O [Compound 270, Ac-Phe-Orn-Pro-hle-Bta-1Ni—NH2] (Ac-F[Orn]P[d(hLeu)][Bta][1Nal]-NH2)	50 to 200 nM
CC(=O)N[C@@H](Cc1ccccc1)C(=O)N[C@@H](CCCN)C(=O)N1CCC[C@H]1C(=O)N[C@H](CCC(C)C)C(=O)N[C@@H](Cc1ccc(F)cc1)C(=O)N[C@@H](Cc1ccc(Cl)c(Cl)c1)C(N)=O [Compound 299, Ac-Phe-Orn-Pro-hle-Pff-Eaa-NH2] (Ac-F[Orn]P[d(hLeu)][Phe(4-F)][Phe(3,4-Cl2)]-NH2)	50 to 200 nM
CC(=O)N[C@@H](Cc1ccccc1)C(=O)N[C@H]1CCCNC(=O)[C@H](Cc2cccc3ccccc23)NC(=O)[C@H](Cc2c[nH]c3ccccc23)NC(=O)[C@@H](CC2CCCCC2)NC(=O)[C@@H]2CCCN2C1=O [Compound 58, Ac-Phe-[Orn-Pro-cha-Trp-1Ni]] (Ac-F[Orn]P[dCha]W[1Nal]; lactam 2-C)	20 to 50 nM
CC(=O)N[C@@H](Cc1ccccc1)C(=O)N[C@@H](CCCN)C(=O)N1CCC[C@H]1C(=O)N[C@H](CCC(C)C)C(=O)N[C@@H](Cc1ccccc1Cl)C(=O)N[C@@H](Cc1ccccc1)C(N)=O [Compound 294, Ac-Phe-Orn-Pro-hle-Ocf-Phe-NH2] (Ac-F[Orn]P[d(hLeu)][Phe(2-Cl)]F-NH2)	50 to 200 nM
CC(C)CC[C@H]1NC(=O)[C@H](CO)NC(=O)[C@@H](NC(=O)[C@@H](N)Cc2ccccc2)CCCNC(=O)[C@H](CC(C)C)NC(=O)[C@H](Cc2cccc(Cl)c2)NC1=O [Compound 385, H-Phe-[Orn-Ser-hle-Mcf-Leu]] (H-F[Orn]S[d(hLeu)][Phe(3-Cl)]L; lactam 2-C)	50 to 200 nM
CC(=O)N[C@@H](Cc1ccccc1)C(=O)N[C@@H](CCCN)C(=O)N1CCC[C@H]1C(=O)N[C@H](CCC(C)C)C(=O)N[C@@H](Cc1csc2ccccc12)C(=O)N[C@@H](Cc1ccc(Cl)cc1Cl)C(N)=O [Compound 277, Ac-Phe-Orn-Pro-hle-Bta-Egy-NH2] (Ac-F[Orn]P[d(hLeu)][Bta][Phe(2,4-Cl2)]-NH2)	50 to 200 nM
COCCOCCOCC(=O)N[C@@H](Cc1ccccc1)C(=O)N[C@H]1CCCNC(=O)[C@H](Cc2ccccc2)NC(=O)[C@H](Cc2c[nH]c3ccccc23)NC(=O)[C@@H](CC2CCCCC2)NC(=O)[C@@H]2C[C@@H](O)CN2C1=O [Compound 337, Fhi-Phe-[Orn-Hyp-cha-Trp-Phe]] ({Decanoyl(3,6,9-trioxa)}-F[Orn][Hyp][dCha]WF; lactam 2-C)	50 to 200 nM
CC(=O)N[C@@H](Cc1ccccc1)C(=O)N[C@H]1CCCNC(=O)[C@H](CCCNC2=NCCN2)NC(=O)[C@H](Cc2c[nH]c3ccccc23)NC(=O)[C@@H](CC2CCCCC2)NC(=O)[C@@H]2CCCN2C1=O [Compound 7, Ac-Phe-[Orn-Pro-cha-Trp-Arg(CH2CH2)]]	200 to 2000 nM
CC(=O)N[C@@H](Cc1cccs1)C(=O)N[C@@H](CCCN)C(=O)N1CCC[C@H]1C(=O)N[C@H](CC1CCCCC1)C(=O)N[C@@H](Cc1csc2ccccc12)C(=O)N[C@@H](Cc1ccccc1)C(N)=O [Compound 312, Ac-Thi-Orn-Pro-cha-Bta-Phe-NH2] (Ac-[2Thi][Orn]P[dCha][Bta]F-NH2)	20 to 50 nM
CC(=O)N[C@@H](Cc1ccccc1)C(=O)N[C@@H](CCCN)C(=O)N1CCCC[C@H]1C(=O)N[C@H](CC1CCCCC1)C(=O)N[C@@H](Cc1c[nH]c2ccccc12)C(=O)N[C@@H](Cc1ccccc1)C(N)=O [Compound 92, Ac-Phe-Orn-Pip-cha-Trp-Phe-NH2] (Ac-F[Orn][Pip][dCha]WF-NH2)	50 to 200 nM
CC(=O)N[C@H](C(=O)N[C@@H](Cc1ccccc1)C(=O)N[C@@H](CCCN)C(=O)N1CC[C@H]1C(=O)N[C@H](CC1CCCCC1)C(=O)N[C@@H](Cc1csc2ccccc12)C(=O)N[C@@H](Cc1ccccc1)C(N)=O)[C@@H](C)O [Compound 314, Ac-Thr-Phe-Orn-Aze-cha-Bta-Phe-NH2] (Ac-TF[Orn][Aze][dCha][Bta]F-NH2)	20 to 50 nM
CCCC[C@@H]1NC(=O)[C@H](Cc2c[nH]c3ccccc23)NC(=O)[C@@H](CC2CCCCC2)NC(=O)[C@H](CO)N(C)C(=O)[C@@H](NC(=O)[C@@H](N)Cc2ccccc2)CCCNC1=O [Compound 372, H-Phe-[Orn-NMS-cha-Trp-Nle]] (H-F[Orn][NMeS][dCha]W[Nle]; lactam 2-C)	50 to 200 nM
CC(C)CC[C@H]1NC(=O)[C@H](CO)N(C)C(=O)[C@@H](NC(=O)[C@@H](N)Cc2ccccc2)CCCNC(=O)[C@H](Cc2ccccc2)NC(=O)[C@H](Cc2ccc(F)cc2)NC1=O [Compound 373, H-Phe-[Orn-NMS-hle-Pff-Phe]] (H-F[Orn][NMeS][d(hLeu)][Phe(4-F)]F; lactam 2-C)	50 to 200 nM
CCCC[C@@H]1NC(=O)[C@H](Cc2c[nH]c3ccccc23)NC(=O)[C@@H](CSC(C)(C)C)NC(=O)[C@@H]2C[C@@H](O)CN2C(=O)[C@@H](NC(=O)[C@@H](N)Cc2ccccc2)CCCNC1=O [Compound 359, H-Phe-[Orn-Hyp-ctb-Trp-Nle]] (H-F[Orn][Hyp][dC](tBu)W[Nle]; lactam 2-C)	20 to 50 nM
CC(=O)N[C@@H](Cc1ccccc1)C(=O)N[C@H]1CCCNC(=O)[C@H](CCC(C)C)NC(=O)[C@H](Cc2c[nH]c3ccccc23)NC(=O)[C@@H](CC2CCCCC2)NC(=O)[C@@H]2CCCN2C1=O [Compound 32, Ac-Phe-[Orn-Pro-cha-Trp-Hle]] (Ac-F[Orn]P[dCha]W[hLeu]; lactam 2-C)	20 to 50 nM
CC(=O)N[C@@H](Cc1ccccc1)C(=O)N[C@@H](CCCN)C(=O)N1CCC[C@H]1C(=O)N[C@H](CC1CCCCC1)C(=O)N[C@@H](Cc1c[nH]c2ccccc12)C(=O)N[C@@H](Cc1ccc2ccccc2c1)C(N)=O [Compound 64, Ac-Phe-Orn-Pro-cha-Trp-2Ni—NH2] (Ac-F[Orn]P[dCha]W[2Nal]-NH2)	20 to 50 nM
COC(=O)C(=O)N[C@@H](Cc1ccccc1)C(=O)N[C@@H](CCCN)C(=O)N1CCC[C@H]1C(=O)N[C@H](CC1CCCCC1)C(=O)N[C@@H](Cc1csc2ccccc12)C(=O)N[C@@H](Cc1ccccc1)C(N)=O [Compound 340, Fid-Phe-Orn-Pro-cha-Bta-Phe-NH2] (Methoxyoxalyl-F[Orn]P[dCha][Bta]F-NH2)	50 to 200 nM
CC(=O)N[C@@H](Cc1ccccc1)C(=O)N[C@@H](CCCN)C(=O)N1CCC[C@H]1C(=O)N[C@H](CCC(C)C)C(=O)N[C@@H](Cc1cccc2ccccc12)C(=O)N[C@@H](Cc1ccccc1)C(N)=O [Compound 268, Ac-Phe-Orn-Pro-hle-1Ni-Phe-NH2] (Ac-F[Orn]P[d(hLeu)][1Nal]F-NH2)	20 to 50 nM

Same assay, conditions: functional assay of example 11; noteworthy = IC50 less than 200 nM

Structure (SMILES)	inhibitory activity (in words)
CC(=O)N[C@@H](Cc1ccccc1)C(=O)N[C@H]1CCCNC(=O)[C@H](CCC(C)C)NC(=O)[C@H](Cc2c[nH]c3ccccc23)NC(=O)[C@@H](CC2CCCCC2)NC(=O)[C@@H]2CCCN2C1=O [Compound 32, Ac-Phe-[Orn-Pro-cha-Trp-Hle]] (Ac-F[Orn]P[dCha]W[hLeu]; lactam 2-C)	without significant loss of activity

Same assay, conditions: functional assay of example 11; noteworthy = IC50 less than 200 nM; listed as Ac-Phe-[Orn-Pro-cha-Trp-Hle]

Structure (SMILES)	inhibitory activity (in words)
CC(=O)N[C@@H](Cc1ccccc1)C(=O)N[C@H]1CCCNC(=O)[C@H](CCC(C)C)NC(=O)[C@H](Cc2c[nH]c3ccccc23)NC(=O)[C@@H](CC2CCCCC2)NC(=O)[C@@H]2CCCN2C1=O [Compound 32, Ac-Phe-[Orn-Pro-cha-Trp-Hle]] (Ac-F[Orn]P[dCha]W[hLeu]; lactam 2-C)	noteworthy inhibitory activity
